Data: patent US20240115578A1, “DRUG COMPOSITION FOR TREATING PEDIATRIC CANCERS” (CHUGAI SEIYAKU KABUSHIKI KAISHA, priority 2021, published 2024)

What was measured:
CYP2C8 = target: T1, CYP2C8 (Homo sapiens, UniProt P10632); assay: Competitive CYP2C8 inhibition; assay type: biochemical; settings: PBPK input
T1 sequence (P10632 1-490): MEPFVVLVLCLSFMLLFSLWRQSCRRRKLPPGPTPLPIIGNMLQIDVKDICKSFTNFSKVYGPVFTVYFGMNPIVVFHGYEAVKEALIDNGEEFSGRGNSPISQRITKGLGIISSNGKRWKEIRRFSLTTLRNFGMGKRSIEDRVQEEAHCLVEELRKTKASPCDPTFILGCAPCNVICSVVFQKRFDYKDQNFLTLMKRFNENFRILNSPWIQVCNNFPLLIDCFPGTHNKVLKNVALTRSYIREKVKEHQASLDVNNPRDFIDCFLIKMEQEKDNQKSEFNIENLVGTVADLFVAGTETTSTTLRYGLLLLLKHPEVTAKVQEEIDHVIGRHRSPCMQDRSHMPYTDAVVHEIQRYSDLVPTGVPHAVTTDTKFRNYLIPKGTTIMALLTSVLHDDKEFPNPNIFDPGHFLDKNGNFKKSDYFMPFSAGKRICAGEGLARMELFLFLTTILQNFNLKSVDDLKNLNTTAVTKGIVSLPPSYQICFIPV
Description: (§1) The PBPK model was constructed by combining alectinib-specific physicochemical information (molecular weight, logP, pKa, etc.), and the in vitro and in vivo study results obtained so far, with the physiological information on the target population in the SimCYP (registered trademark) software (Certara, Sheffield, UK) (Table 2).

CYP2J2 = assay: Intrinsic clearance assigned to CYP2J2; assay type: in vitro ADME; settings: CYP2J2 arbitrarily assigned, true enzyme not known
Description: as §1

[1] = Blood-to-plasma ratio and free fractions (PBPK input); assay type: in vitro ADME
Description: as §1

[2] = Physicochemical input parameters of alectinib for PBPK model
Description: as §1

CYP3A4 [3] = assay: CYP3A4 induction; assay type: in vitro ADME; settings: PBPK input
Description: as §1

[4] = Intrinsic clearance, other HLM; assay type: in vitro ADME; settings: human, human liver microsomes; PBPK input; read-out: CLint, HLMother
Description: as §1

[5] = Vss after intravenous administration in healthy subjects (Morcos et al.); settings: human, in vivo, 50 μg, 475 L normalized with 74.8 kg, read-out: Actual Vss
[6] = Absorption parameters fitted to clinical PK profiles in Japanese adult patients (JP28927); assay type: in vivo
Description: It was then optimized using clinical trial results in Japanese adults as parameters related to the absorption process were incorporated into the model.

CYP3A4 [7] = target: T2, CYP3A4 (Homo sapiens, UniProt P08684); assay: Mechanism-based CYP3A4 inhibition; assay type: biochemical; settings: PBPK input; read-out: Mechanism-based inhibitor CYP3A4 inhibition Ki
T2 sequence (P08684 whole entry): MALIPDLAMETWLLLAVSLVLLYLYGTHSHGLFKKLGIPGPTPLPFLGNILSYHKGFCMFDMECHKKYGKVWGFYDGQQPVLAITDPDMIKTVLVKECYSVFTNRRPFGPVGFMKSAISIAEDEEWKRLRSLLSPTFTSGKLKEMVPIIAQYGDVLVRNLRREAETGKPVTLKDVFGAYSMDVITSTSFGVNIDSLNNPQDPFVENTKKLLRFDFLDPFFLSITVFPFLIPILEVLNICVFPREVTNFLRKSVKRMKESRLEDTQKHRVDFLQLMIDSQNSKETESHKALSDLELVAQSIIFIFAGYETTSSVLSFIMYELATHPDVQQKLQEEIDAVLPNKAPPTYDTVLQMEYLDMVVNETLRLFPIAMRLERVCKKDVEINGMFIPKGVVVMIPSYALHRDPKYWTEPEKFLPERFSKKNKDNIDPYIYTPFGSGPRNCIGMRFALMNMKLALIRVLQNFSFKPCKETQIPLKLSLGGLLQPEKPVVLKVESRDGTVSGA
Description: as §1

CYP3A4 [8] = target: T2, CYP3A4; assay: Intrinsic clearance by CYP3A4; assay type: in vitro ADME
Description: For pediatric PK prediction, especially for children under the age of 2 years, the need to consider developmental changes in the expression of drug-metabolizing enzymes and the like, in addition to the changes in body size associated with growth, has been reported (C Wagner, P Zhao, Y Pan, V Hsu, J Grillo, S M Huang, V Sinha. Application of Physiologically Based Pharmacokinetic (PBPK) Modeling to Support Dose Selection: Report of an FDA Public Workshop on PBPK. CPT Pharmacometrics Syst Pharmacol. 2015 April; 4(4): 226-30).
as §1
To predict pediatric PK, the physiological information on Japanese adults was replaced with that on Japanese children. […] The inter-individual variability in blood concentration on this simulation was calculated based on Japanese demographic data (Japanese pediatric demographic data source from Japanese Ministry of Health, Labour, and Welfare. Available from: […]

[9] = system: recurrent/refractory childhood cancers; settings: IMT with ALK fusion gene, ALCL, neuroblastoma, other malignant solid tumors; cited from earlier work
[10] = fitted, multiple p.o. with standard meal, 150 mg capsule, Japanese adult patients

Row | Compound | Ki (CYP2C8) | CLint, CYP2J2 (CYP2J2) | fuGut [1] | logP [2] | pKa 1 ([2]; monoprotic base) | CYP3A4 induction Indslope (CYP3A4 [3]) | microsomal CLint [4] | Vd [5] | QGUT ([6]; first-order absorption model (assumed)) | Fa [6, 10] | Lag time [6, 10] | ka [6, 10] | Ki (CYP3A4 [7]) | Contribution of CYP3A4 to hepatic metabolic clearance (CYP3A4 [8]) | CLint, CYP3A4 (CYP3A4 [8]; PBPK input) | Clinical efficacy in childhood cancers [9]
1 | CCc1cc2c(cc1N1CCC(N3CCOCC3)CC1)C(C)(C)c1[nH]c3cc(C#N)ccc3c1C2=O [alectinib, 9-ethyl-6,6-dimethyl-8-(4-morpholin-4-yl-piperidin-1-yl)-11-oxo-6,11-dihydro-5H-benzo[b]carbazole-3-carbonitrile] | 0.147 µM | 285 μL/min/pmol of μL/min/pmol of isoform | 0.01 | 1.96 | 7.05 | 3.52 µM⁻¹ | 1710 µL/min/mg | 6.35 L/kg | 8.49 L/h | 0.48 | 2.92 h | 0.22 h⁻¹ | 8.29 µM | about 40% | 9.98 μL/min/pmol of μL/min/pmol of isoform | 
2 | C[C@@H](Oc1cc(-c2cnn(C3CCNCC3)c2)cnc1N)c1c(Cl)ccc(F)c1Cl [crizotinib] |  |  |  |  |  |  |  |  |  |  |  |  |  |  |  | has clinical efficacy in these childhood cancers
